Measured values published in patent US12268674B2, “Mi-2β inhibitor as an immunotherapy agent” (BioVentures, LLC, priority 2021, dated 2025).
Like-named read-outs stand apart in the source and are kept apart here.

How the values were obtained:
Assay type in all cases: binding
MCM6 = biological target: T1, MCM6 (Homo sapiens, UniProt P33991+Q14566); assay: ATPase profile (ATP acyl phosphate probe); details: read-out: Inhibition (%) by 1 μM Z36-MP5
T1 construct: to get the native cell lysate; endogenous in cells; host or cells: A375

ALDH18A1 = biological target: T2, ALDH18A1 (Homo sapiens, UniProt P54886); assay: ATPase profile (ATP acyl phosphate probe); details: ALDH18A1, SEQ ID NO: 39, ATP BS
T2 construct: to get the native cell lysate; host or cells: A375 cell lysate

NADSYN1 = biological target: T3, NADSYN1 (Homo sapiens, UniProt Q6IA69); assay: ATPase profile (ATP acyl phosphate probe); details: NADSYN1, SEQ ID NO: 130, ATP BS
T3 construct: to get the native cell lysate; endogenous in cells; host or cells: A375

DCTPP1 = biological target: T4, DCTPP1 (Homo sapiens, UniProt Q9H773); assay: ATPase profile (ATP acyl phosphate probe); details: DCTPP1, SEQ ID NO: 65, ATP BS
T4 construct: endogenous in cells; host or cells: A375 cell lysate

DHX15 = biological target: T5, DHX15 (Homo sapiens, UniProt O43143); assay: ATPase profile (ATP acyl phosphate probe); details: DHX15, SEQ ID NO: 72, ATP BS
T5 construct: endogenous in cells; host or cells: A375 cell lysate

NARS = biological target: T6, NARS (Homo sapiens, UniProt O43776); assay: ATPase profile (ATP acyl phosphate probe); details: SEQ ID NO: 131, ATP BS
T6 construct: to get the native cell lysate; endogenous in cells; host or cells: A375

RFK = biological target: T7, RFK (Homo sapiens, UniProt Q969G6); assay: ATPase profile (ATP acyl phosphate probe); details: SEQ ID NO: 187, ATP BS
T7 construct: to get the native cell lysate; endogenous in cells; host or cells: A375 cell lysate

[1] = biological target: T8, (Homo sapiens, UniProt Q9HCK8); assay: ATPase profile (ATP acyl phosphate probe); details: CIID8, SEQ ID NO: 57, ATP BS
T8 construct: to get the native cell lysate; host or cells: A375 cell lysate

RUVBL1 = biological target: T9, RUVBL1 (Homo sapiens, UniProt Q9Y265); assay: ATPase profile (ATP acyl phosphate probe); details: RUVBL1, SEQ ID NO: 188, ATP BS
T9 construct: to get the native cell lysate; endogenous in cells; host or cells: A375 cell lysate

CLPX = biological target: T10, CLPX (Homo sapiens, UniProt O76031); assay: ATPase profile (ATP acyl phosphate probe); details: SEQ ID NO: 59, ATP BS
T10 construct: endogenous in cells; host or cells: A375 cell lysate

MCCC1 = biological target: T11, MCCC1 (Homo sapiens, UniProt Q96RQ3); assay: ATPase profile (ATP acyl phosphate probe)
T11 construct: to get the native cell lysate; endogenous in cells; host or cells: A375

MYO1E = biological target: T12, MYO1E (Homo sapiens, UniProt Q12965); assay: ATPase profile (ATP acyl phosphate probe); details: SEQ ID NO: 128, ATP BS
T12 construct: to get the native cell lysate; endogenous in cells; host or cells: A375

HSPA9 = biological target: T13, HSPA9 (Homo sapiens, UniProt P38646); assay: ATPase profile (ATP acyl phosphate probe); details: HSPA9, SEQ ID NO: 108, ATP BS
T13 construct: to get the native cell lysate; endogenous in cells; host or cells: A375

KARS = biological target: T14, KARS (Homo sapiens, UniProt Q15046); assay: ATPase profile (ATP acyl phosphate probe); details: SEQ ID NO: 112, ATP BS
T14 construct: to get the native cell lysate; endogenous in cells; host or cells: A375

TOR1A = biological target: T15, TOR1A (Homo sapiens, UniProt O14656); assay: ATPase profile (ATP acyl phosphate probe); details: SEQ ID NO: 203, ATP BS
T15 construct: to get the native cell lysate; endogenous in cells; host or cells: A375 cell lysate

CCT8 = biological target: T16, CCT8 (Homo sapiens, UniProt P50990); assay: ATPase profile (ATP acyl phosphate probe); details: CCT8, SEQ ID NO: 56, ATP BS
T16 construct: to get the native cell lysate; host or cells: A375 cell lysate

ACTR3 = biological target: T17, ACTR3 (Homo sapiens, UniProt P61158); assay: ATPase profile (ATP acyl phosphate probe)
T17 construct: to get the native cell lysate; host or cells: A375 cell lysate

ABCE1 = biological target: T18, ABCE1 (Homo sapiens, UniProt P61221); assay: ATPase profile (ATP acyl phosphate probe); details: ABCE1, SEQ ID NO: 15, ATP BS
T18 construct: to get the native cell lysate; host or cells: A375 cell lysate

HYOU1 = biological target: T19, HYOU1 (Homo sapiens, UniProt Q9Y4L1); assay: ATPase profile (ATP acyl phosphate probe)
T19 construct: to get the native cell lysate; endogenous in cells; host or cells: A375

SARS = SARS (Homo sapiens, UniProt P49591); details: SEQ ID NO: 190, ATP BS
PMVK = biological target: T20, PMVK (Homo sapiens, UniProt Q15126); assay: ATPase profile (ATP acyl phosphate probe); details: SEQ ID NO: 163, ATP BS
T20 construct: to get the native cell lysate; endogenous in cells; host or cells: A375 cell lysate

PSMC6 = biological target: T21, PSMC6 (Homo sapiens, UniProt P62333); assay: ATPase profile (ATP acyl phosphate probe); details: PSMC6, SEQ ID NO: 178, ATP BS
T21 construct: to get the native cell lysate; endogenous in cells; host or cells: A375 cell lysate

ASS1 = biological target: T22, ASS1 (Homo sapiens, UniProt P00966); assay: ATPase profile (ATP acyl phosphate probe); details: ASS1, SEQ ID NO: 43, ATP BS
T22 construct: to get the native cell lysate; host or cells: A375 cell lysate

[2] = system: panel of 233 diverse ATPases; assay: ATP acyl phosphate probe assay, ATPase profile in native A375 cell lysates; details: 1 μM
SMC3 = biological target: T23, SMC3 (Homo sapiens, UniProt Q9UQE7); assay: ATPase profile (ATP acyl phosphate probe); details: SMC3, SEQ ID NO: 194, ATP BS
T23 construct: to get the native cell lysate; endogenous in cells; host or cells: A375 cell lysate

CCT3 = biological target: T24, CCT3 (Homo sapiens, UniProt P49368); assay: ATPase profile (ATP acyl phosphate probe); details: CCT3, SEQ ID NO: 52, ATP BS
T24 construct: to get the native cell lysate; host or cells: A375 cell lysate

GARS = biological target: T25, GARS (Homo sapiens, UniProt P41250); assay: ATPase profile (ATP acyl phosphate probe); details: SEQ ID NO: 79, ATP BS
T25 construct: endogenous in cells; host or cells: A375 cell lysate

AK1 = biological target: T26, AK1 (Homo sapiens, UniProt P00568); assay: ATPase profile (ATP acyl phosphate probe)
T26 construct: to get the native cell lysate; host or cells: A375 cell lysate

HSPA1A = biological target: T27, HSPA1A (Homo sapiens, UniProt P0DMV8); assay: ATPase profile (ATP acyl phosphate probe)
T27 construct: to get the native cell lysate; endogenous in cells; host or cells: A375

PGK1 = biological target: T28, PGK1 (Homo sapiens, UniProt P00558); assay: ATPase profile (ATP acyl phosphate probe); details: PGK1, SEQ ID NO: 160, ATP BS
T28 construct: to get the native cell lysate; endogenous in cells; host or cells: A375 cell lysate

T1 sequence (Q14566 whole entry): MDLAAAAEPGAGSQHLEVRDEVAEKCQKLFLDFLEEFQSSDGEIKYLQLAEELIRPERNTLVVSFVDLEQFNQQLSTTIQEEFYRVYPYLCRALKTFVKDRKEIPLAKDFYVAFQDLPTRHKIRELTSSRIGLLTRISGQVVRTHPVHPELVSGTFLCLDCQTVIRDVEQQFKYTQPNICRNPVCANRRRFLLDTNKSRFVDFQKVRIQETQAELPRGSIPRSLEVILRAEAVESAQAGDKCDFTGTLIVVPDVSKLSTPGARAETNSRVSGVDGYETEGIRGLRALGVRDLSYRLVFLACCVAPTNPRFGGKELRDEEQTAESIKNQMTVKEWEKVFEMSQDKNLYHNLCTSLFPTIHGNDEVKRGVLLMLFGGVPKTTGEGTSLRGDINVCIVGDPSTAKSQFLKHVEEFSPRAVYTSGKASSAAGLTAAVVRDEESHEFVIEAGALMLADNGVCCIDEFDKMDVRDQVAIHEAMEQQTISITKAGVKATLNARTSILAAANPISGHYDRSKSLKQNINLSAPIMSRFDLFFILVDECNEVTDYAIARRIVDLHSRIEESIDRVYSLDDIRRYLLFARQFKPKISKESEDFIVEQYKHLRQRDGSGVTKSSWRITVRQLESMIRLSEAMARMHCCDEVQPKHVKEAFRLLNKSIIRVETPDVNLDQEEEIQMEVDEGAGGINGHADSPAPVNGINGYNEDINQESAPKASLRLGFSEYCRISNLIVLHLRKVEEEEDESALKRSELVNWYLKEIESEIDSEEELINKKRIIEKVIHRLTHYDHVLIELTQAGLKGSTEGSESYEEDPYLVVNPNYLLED
T1 sequence (P33991 whole entry): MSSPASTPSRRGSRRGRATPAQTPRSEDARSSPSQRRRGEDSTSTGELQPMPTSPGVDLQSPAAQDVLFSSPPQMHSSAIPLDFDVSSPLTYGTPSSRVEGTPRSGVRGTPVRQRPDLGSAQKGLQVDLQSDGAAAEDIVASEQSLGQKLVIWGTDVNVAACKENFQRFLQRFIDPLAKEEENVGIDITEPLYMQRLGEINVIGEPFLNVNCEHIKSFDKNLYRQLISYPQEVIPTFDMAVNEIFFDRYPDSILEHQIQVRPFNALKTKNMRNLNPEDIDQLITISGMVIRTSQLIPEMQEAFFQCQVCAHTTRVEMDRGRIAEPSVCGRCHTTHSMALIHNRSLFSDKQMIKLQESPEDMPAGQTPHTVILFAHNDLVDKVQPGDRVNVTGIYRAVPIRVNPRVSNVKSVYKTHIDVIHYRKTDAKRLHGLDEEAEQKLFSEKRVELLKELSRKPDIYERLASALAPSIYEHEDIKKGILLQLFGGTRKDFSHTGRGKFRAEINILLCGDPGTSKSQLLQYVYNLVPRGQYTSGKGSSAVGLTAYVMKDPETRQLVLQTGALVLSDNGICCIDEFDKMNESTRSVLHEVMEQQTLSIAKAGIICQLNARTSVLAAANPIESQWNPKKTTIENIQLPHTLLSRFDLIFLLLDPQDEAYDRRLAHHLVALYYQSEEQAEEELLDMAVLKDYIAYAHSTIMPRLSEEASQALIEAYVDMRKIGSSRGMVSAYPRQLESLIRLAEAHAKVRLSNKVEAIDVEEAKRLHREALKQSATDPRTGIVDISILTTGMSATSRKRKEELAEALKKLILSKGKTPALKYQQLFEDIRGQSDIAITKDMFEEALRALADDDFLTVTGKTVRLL
T1 sequence (P49736 whole entry partner): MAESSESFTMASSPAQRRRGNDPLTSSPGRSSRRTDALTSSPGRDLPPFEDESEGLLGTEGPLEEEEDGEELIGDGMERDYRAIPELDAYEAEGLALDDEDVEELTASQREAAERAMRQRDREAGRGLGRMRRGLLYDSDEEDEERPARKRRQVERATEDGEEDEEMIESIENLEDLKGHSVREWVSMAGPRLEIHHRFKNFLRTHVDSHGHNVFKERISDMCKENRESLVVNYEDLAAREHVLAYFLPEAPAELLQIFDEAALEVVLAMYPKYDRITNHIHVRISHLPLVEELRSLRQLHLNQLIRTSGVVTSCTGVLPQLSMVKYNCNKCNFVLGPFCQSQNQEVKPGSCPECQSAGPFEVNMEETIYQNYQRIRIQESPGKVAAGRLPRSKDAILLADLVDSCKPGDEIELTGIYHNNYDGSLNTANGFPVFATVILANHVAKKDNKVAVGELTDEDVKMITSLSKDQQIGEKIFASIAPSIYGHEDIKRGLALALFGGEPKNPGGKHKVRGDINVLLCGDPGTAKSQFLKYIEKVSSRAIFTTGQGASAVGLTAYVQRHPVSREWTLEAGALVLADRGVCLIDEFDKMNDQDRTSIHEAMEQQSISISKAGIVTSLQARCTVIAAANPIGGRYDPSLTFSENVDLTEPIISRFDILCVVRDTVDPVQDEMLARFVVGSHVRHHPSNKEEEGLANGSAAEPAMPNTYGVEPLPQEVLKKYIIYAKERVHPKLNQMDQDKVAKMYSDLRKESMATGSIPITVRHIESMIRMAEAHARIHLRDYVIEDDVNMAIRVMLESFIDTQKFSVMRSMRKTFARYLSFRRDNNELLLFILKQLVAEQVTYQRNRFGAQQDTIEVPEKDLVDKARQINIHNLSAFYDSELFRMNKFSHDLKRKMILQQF
T1 sequence (P33993 whole entry partner): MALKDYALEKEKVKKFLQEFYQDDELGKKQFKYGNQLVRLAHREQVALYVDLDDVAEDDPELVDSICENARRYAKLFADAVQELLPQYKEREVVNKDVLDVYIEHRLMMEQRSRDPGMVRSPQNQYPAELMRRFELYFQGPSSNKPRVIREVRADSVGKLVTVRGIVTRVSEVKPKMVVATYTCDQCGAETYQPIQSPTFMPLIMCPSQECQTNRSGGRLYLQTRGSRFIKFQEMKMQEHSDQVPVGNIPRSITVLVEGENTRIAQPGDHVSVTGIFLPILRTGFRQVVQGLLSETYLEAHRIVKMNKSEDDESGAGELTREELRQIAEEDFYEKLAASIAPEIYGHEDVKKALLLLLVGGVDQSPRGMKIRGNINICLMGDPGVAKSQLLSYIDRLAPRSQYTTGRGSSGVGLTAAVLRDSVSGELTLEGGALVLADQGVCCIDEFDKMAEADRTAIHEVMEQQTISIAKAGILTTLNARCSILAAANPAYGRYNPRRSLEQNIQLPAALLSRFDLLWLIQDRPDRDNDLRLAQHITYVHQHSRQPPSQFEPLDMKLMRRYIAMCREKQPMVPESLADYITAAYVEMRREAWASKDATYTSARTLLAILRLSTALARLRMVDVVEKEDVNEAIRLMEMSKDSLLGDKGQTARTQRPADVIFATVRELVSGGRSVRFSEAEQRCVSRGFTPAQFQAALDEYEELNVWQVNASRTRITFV
T1 sequence (P25205 whole entry partner): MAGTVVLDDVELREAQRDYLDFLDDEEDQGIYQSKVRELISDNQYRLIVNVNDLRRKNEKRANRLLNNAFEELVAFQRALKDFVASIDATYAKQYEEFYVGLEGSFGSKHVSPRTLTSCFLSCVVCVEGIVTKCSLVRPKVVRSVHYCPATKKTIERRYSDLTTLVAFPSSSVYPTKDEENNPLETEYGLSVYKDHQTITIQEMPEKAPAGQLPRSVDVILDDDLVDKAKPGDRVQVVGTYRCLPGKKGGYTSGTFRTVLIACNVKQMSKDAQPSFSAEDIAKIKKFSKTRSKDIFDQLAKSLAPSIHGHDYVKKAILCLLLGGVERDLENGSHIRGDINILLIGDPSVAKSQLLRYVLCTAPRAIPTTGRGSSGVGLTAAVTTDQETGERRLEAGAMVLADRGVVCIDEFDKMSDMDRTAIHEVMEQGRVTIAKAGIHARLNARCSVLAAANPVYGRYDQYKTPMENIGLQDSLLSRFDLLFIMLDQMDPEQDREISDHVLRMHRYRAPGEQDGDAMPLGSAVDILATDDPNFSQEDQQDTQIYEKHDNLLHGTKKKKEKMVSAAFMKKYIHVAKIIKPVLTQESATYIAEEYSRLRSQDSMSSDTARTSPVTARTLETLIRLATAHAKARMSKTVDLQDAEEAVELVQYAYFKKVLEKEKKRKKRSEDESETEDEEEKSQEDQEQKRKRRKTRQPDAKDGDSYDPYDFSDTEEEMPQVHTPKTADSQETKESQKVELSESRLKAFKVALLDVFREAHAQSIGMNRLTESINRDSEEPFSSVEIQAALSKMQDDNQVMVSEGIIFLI
T1 sequence (P33992 whole entry partner): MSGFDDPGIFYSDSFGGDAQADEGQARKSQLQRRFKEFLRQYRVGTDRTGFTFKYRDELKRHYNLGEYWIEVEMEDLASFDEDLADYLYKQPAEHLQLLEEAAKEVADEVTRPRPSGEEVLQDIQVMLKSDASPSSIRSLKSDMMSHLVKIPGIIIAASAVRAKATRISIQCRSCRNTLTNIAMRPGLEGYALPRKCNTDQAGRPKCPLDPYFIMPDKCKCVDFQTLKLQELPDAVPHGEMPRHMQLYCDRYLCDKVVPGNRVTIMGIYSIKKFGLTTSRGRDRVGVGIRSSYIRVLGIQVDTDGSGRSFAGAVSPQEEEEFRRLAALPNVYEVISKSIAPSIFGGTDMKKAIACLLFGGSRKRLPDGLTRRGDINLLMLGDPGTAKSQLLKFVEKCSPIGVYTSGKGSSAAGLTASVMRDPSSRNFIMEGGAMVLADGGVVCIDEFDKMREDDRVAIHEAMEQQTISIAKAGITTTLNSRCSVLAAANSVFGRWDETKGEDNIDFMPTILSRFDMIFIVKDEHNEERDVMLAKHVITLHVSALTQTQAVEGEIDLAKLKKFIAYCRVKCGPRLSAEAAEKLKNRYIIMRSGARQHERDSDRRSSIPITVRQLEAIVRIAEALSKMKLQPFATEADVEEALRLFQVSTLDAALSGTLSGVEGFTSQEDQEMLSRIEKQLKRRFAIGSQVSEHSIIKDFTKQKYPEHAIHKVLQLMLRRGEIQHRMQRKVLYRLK
T26 sequence (P00568 whole entry): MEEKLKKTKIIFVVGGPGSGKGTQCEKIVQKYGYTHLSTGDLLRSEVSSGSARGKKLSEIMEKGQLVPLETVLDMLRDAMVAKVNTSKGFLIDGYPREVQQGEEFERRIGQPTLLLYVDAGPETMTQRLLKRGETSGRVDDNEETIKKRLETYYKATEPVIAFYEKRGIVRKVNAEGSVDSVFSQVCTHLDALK

Compound: Cn1c(=O)[nH]c2ccc(-c3cccc(C(=O)NC4CCn5ccnc5C4)c3)cc21 (stereo not drawn) [Z36-MP5, 3-(3-methyl-2-oxo-2,3-dihydro-1H-benzo[d]imidazol-5-yl)-N-(5,6,7,8-tetrahydroimidazo[1,2-a]pyridin-7-yl)benzamide]
- inhibition at 1 µM (MCM6; MCM6, SEQ ID NO: 119, ATP BS): -5.23%
- inhibition at 1 µM (MCM6; MCM6, SEQ ID NO: 120, ATP BS): -2.54%
- Inhibition (%) by 1 μM Z36-MP5 (ALDH18A1): −6.95%
- Inhibition (%) by 1 μM Z36-MP5 (NADSYN1): −2.19%
- Inhibition (%) by 1 μM Z36-MP5 (DCTPP1): 12.74%
- Inhibition (%) by 1 μM Z36-MP5 (DHX15): −5.22%
- Inhibition (%) by 1 μM Z36-MP5 (NARS): 2.36%
- Inhibition (%) by 1 μM Z36-MP5 (RFK): 10.06%
- Inhibition (%) by 1 μM Z36-MP5 [1]: −44.26%
- Inhibition (%) by 1 μM Z36-MP5 (RUVBL1): −15.57%
- Inhibition (%) by 1 μM Z36-MP5 (CLPX): 0.44%
- Inhibition (%) by 1 μM Z36-MP5 (MCCC1; MCCC1, SEQ ID NO: 116, ATP BS): −6.46%
- Inhibition (%) by 1 μM Z36-MP5 (MCCC1; MCCC1, SEQ ID NO: 117, ATP BS): 4.45%
- Inhibition (%) by 1 μM Z36-MP5 (MYO1E): 4.66%
- Inhibition (%) by 1 μM Z36-MP5 (HSPA9): −4.09%
- Inhibition (%) by 1 μM Z36-MP5 (KARS): 2.22%
- Inhibition (%) by 1 μM Z36-MP5 (TOR1A): 4.27%
- Inhibition (%) by 1 μM Z36-MP5 (CCT8): 9.18%
- Inhibition (%) by 1 μM Z36-MP5 (ACTR3; ACTR3, SEQ ID NO: 27, ATP BS): 5.36%
- Inhibition (%) by 1 μM Z36-MP5 (ACTR3; ACTR3, SEQ ID NO: 28, ATP BS): −0.28%
- Inhibition (%) by 1 μM Z36-MP5 (ABCE1): −4.76%
- Inhibition (%) by 1 μM Z36-MP5 (HYOU1; HYOU1, SEQ ID NO: 109, ATP BS): −13.34%
- Inhibition (%) by 1 μM Z36-MP5 (HYOU1; HYOU1, SEQ ID NO: 110, ATP BS): −6.78%
- Inhibition (%) by 1 μM Z36-MP5 (SARS): 3.57%
- Inhibition (%) by 1 μM Z36-MP5 (PMVK): −5.60%
- Inhibition (%) by 1 μM Z36-MP5 (PSMC6): −0.83%
- Inhibition (%) by 1 μM Z36-MP5 (ASS1): 0.53%
- inhibition against a panel of 233 diverse ATPases [2]: less than 35%
- Inhibition (%) by 1 μM Z36-MP5 (SMC3): −10.19%
- Inhibition (%) by 1 μM Z36-MP5 (CCT3): 10.09%
- Inhibition (%) by 1 μM Z36-MP5 (GARS): 16.66%
- Inhibition (%) by 1 μM Z36-MP5 (AK1; AK1, SEQ ID NO: 31, ATP BS): −7.19%
- Inhibition (%) by 1 μM Z36-MP5 (AK1; AK1, SEQ ID NO: 32, ATP BS): −9.87%
- Inhibition (%) by 1 μM Z36-MP5 (HSPA1A; SEQ ID NO: 100, ATP BS): −9.44%
- Inhibition (%) by 1 μM Z36-MP5 (HSPA1A; SEQ ID NO: 101, ATP BS): −15.23%
- Inhibition (%) by 1 μM Z36-MP5 (PGK1): −4.49%
